In ChEMBL document CHEMBL4419178, “Yap1 inhibitors that target the interaction of yap1 with oct4” (2018):
Blank lines part the entries; values can stand above or below the compound they belong to. Activity calls are given as the source filed them. The calls are words filed in the database; no cut-off is given here.

How the values were obtained:
[1] = molecular target: Transcriptional coactivator YAP1 (Homo sapiens) (UniProt P46937); assay: Inhibition of YAP1 (unknown origin) assessed as disruption in YAP1/OCT4 interaction at 50 uM by cell based assay
[2] = Lipophilicity, logP of the compound; format: physicochemical; conditions: octanol/water
[3] = molecular target: Transcriptional coactivator YAP1 (Homo sapiens) (UniProt P46937); assay: Inhibition of YAP1 (unknown origin) assessed as disruption in YAP1/OCT4 interaction at 10 uM by ELISA relative to control
[4] = molecular target: Transcriptional coactivator YAP1 (Homo sapiens) (UniProt P46937); assay: Inhibition of YAP1 (unknown origin) assessed as disruption in YAP1/OCT4 interaction at 5 uM by ELISA relative to control
NCI-H1650 [5] = assay: Inhibition of self-renewal capacity in stem-like side-population cells of human NCI-H1650 cells assessed as reduction in number of spheres at 1 to 20 uM incubated for 10 days by sphere formation assay; format: functional, cell-based
NCI-H2286 = assay: Cytotoxicity in human NCI-H2286 cells assessed as reduction in cell viability at 5 to 50 uM incubated for 96 hrs by MTT assay; format: functional, cell-based
NCI-H1650 [6] = assay: Cytotoxicity in human NCI-H1650 cells assessed as induction of cell killing in presence of cancer associated fibroblasts at 20 to 50 uM incubated for 24 to 48 hrs by cytotracker-red/green dye staining based immunofluorescence microscopy; format: functional
NCI-H2170 = assay: Cytotoxicity in human NCI-H2170 cells assessed as reduction in cell viability at 5 to 50 uM incubated for 96 hrs by MTT assay; format: functional, cell-based
NCI-H1650 [7] = assay: Cytotoxicity in human NCI-H1650 cells assessed as reduction in cell viability at 20 to 50 uM incubated for 72 hrs by MTT assay; format: functional, cell-based
NCI-H1650 [8] = assay: Inhibition of self-renewal capacity in stem-like side-population cells of human NCI-H1650 cells assessed as reduction in number of spheres at 5 to 50 uM incubated for 10 days by sphere formation assay; format: functional, cell-based
[9] = Cytotoxicity in human cancer associated fibroblasts at 20 to 50 uM incubated for 24 to 48 hrs by cytotracker-red/green dye staining based immunofluorescence microscopy
A549 = assay: Cytotoxicity in human A549 cells assessed as reduction in cell viability at 1 to 20 uM incubated for 72 hrs by MTT assay; format: functional, cell-based
NCI-H1650 [10] = assay: Cytotoxicity in human NCI-H1650 cells assessed as reduction in cell viability at 1 to 20 uM incubated for 72 hrs by MTT assay; format: functional, cell-based
NCI-H1650 [11] = assay: Cytotoxicity in human NCI-H1650 cells assessed as reduction in cell viability at 20 to 50 uM incubated for 24 hrs followed by medium replacement with RPMI medium with 10% FCS for 48 hrs by MTT assay; format: functional, cell-based
[12] = molecular target: Transcriptional coactivator YAP1 (Homo sapiens) (UniProt P46937); assay: Inhibition of YAP1 in human A549 cells assessed as reduction in PDK2 protein expression at 10 uM incubated for 72 hrs by Western blot analysis; format: cell-based
NCI-H1703 [13] = assay: Inhibition of adherence-independent cell growth in human NCI-H1703 cells at 10 uM incubated for 33 days; format: functional, cell-based
[14] = molecular target: Transcriptional coactivator YAP1 (Homo sapiens) (UniProt P46937); assay: Inhibition of YAP1 in human NCI-H1650 cells assessed as reduction in c-Myc protein expression at 10 uM incubated for 72 hrs by Western blot analysis; format: cell-based
NCI-H1650 [15] = assay: Inhibition of adherence-independent cell growth in human NCI-H1650 cells at 10 uM incubated for 33 days; format: functional, cell-based
[16] = molecular target: Transcriptional coactivator YAP1 (Homo sapiens) (UniProt P46937); assay: Inhibition of YAP1 in human A549 cells assessed as reduction in Sox2 protein expression at 10 uM incubated for 72 hrs by Western blot analysis; format: cell-based
NCI-H1650 [17] = assay: Inhibition of adherence-independent cell growth in human NCI-H1650 cells at 5 uM incubated for 33 days; format: functional, cell-based
NCI-H1703 [18] = assay: Inhibition of adherence-independent cell growth in human NCI-H1703 cells at 5 uM incubated for 33 days; format: functional, cell-based
[19] = molecular target: Transcriptional coactivator YAP1 (Homo sapiens) (UniProt P46937); assay: Inhibition of YAP1 in human A549 cells assessed as reduction in c-Myc protein expression at 10 uM incubated for 72 hrs by Western blot analysis; format: cell-based
[20] = molecular target: Transcriptional coactivator YAP1 (Homo sapiens) (UniProt P46937); assay: Inhibition of YAP1 in human NCI-H1650 cells assessed as reduction in Sox2 protein expression at 10 uM incubated for 72 hrs by Western blot analysis; format: cell-based
[21] = molecular target: Transcriptional coactivator YAP1 (Homo sapiens) (UniProt P46937); assay: Inhibition of YAP1 in human NCI-H1650 cells assessed as reduction in PDK2 protein expression at 10 uM incubated for 72 hrs by Western blot analysis; format: cell-based

Chain of Transcriptional coactivator YAP1 (Homo sapiens) (P46937 whole entry): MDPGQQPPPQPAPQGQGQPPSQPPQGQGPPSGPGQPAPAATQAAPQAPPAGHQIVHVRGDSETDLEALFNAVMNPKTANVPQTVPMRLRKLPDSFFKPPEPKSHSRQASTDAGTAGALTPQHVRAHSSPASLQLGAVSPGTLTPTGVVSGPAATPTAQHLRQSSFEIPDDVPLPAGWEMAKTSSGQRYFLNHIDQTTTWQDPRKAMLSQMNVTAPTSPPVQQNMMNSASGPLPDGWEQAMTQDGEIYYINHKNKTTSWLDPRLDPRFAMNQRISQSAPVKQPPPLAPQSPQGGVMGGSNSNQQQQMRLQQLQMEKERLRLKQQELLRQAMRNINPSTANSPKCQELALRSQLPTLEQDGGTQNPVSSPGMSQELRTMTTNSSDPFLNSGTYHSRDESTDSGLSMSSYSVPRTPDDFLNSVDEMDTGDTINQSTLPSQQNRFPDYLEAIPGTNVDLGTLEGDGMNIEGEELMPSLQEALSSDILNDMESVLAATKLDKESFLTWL

- inhibition [1]: > 75%
- logP [2]: 3.9 to 3.94
- inhibition [3]: 80.8%
- inhibition [4]: 72.6%
Structure (SMILES): COC(=O)[C@H](Cc1ccc(OCc2ccccc2)cc1)NC(=O)CC1CCN(C(=O)OC(C)(C)C)CC1
- inhibition (NCI-H1650 [5]): Active

- inhibition [1]: 82%
- inhibition [3]: 80%
Structure (SMILES): COC(=O)[C@H](Cc1ccc(OCc2ccccc2)cc1)NC(=O)CC1CCN(C(=O)Cc2ccccc2)CC1
- Activity (NCI-H2286): Active
- Activity (NCI-H1650 [6]): Active
- Activity (NCI-H2170): Active
- Activity (NCI-H1650 [7]): Active
- inhibition (NCI-H1650 [8]): Active
- Activity [9]: Non-Toxic
- Activity (A549): Active
- Activity (NCI-H1650 [10]): Active
- Activity (NCI-H1650 [11]): Active

- inhibition [12]: Active
- inhibition [14]: Active
- inhibition [16]: Active
- inhibition [19]: Active
- inhibition [20]: Active
- inhibition [21]: Active
Structure (SMILES): COC(=O)[C@H](Cc1ccc(OCc2ccccc2)cc1)NC(=O)CC1CCN(C(=O)c2ccc(NC(=O)OC(C)(C)C)cc2)CC1
- inhibition (NCI-H1703 [13]): Active
- inhibition (NCI-H1650 [15]): Active
- inhibition (NCI-H1650 [17]): Active
- inhibition (NCI-H1703 [18]): Active
